How the values were obtained:
[1] = biological target: T1, phosphorylation-defective mutant of PPARγ (GFP-PPARg S82A) (Mus musculus, UniProt P37238, S112A); assay: 3×PPRE luciferase reporter with phosphorylation-defective mutant PPARγ; format: cell-based; details: SHSY5Y cells, 10 uM, 18 hours
T1 construct: expressed in transfected cells; host or cells: SHSY5Y neuroblastoma cells
T1 sequence (P37238 1-475 isoform P37238-2 S82A): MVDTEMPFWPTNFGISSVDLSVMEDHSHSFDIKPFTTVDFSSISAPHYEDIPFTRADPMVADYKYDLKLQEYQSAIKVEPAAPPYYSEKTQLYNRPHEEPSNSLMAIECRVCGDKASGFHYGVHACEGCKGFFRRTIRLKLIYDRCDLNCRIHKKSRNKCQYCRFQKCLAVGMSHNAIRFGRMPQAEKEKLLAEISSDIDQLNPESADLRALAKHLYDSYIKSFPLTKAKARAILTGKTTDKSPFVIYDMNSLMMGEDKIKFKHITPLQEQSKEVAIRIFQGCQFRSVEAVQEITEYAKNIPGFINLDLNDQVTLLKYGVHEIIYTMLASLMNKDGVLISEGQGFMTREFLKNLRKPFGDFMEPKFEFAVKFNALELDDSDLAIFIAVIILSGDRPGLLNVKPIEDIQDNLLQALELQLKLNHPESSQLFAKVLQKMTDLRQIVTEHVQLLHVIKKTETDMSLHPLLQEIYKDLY
Procedure: SHSY5Y neuroblastoma cells were transiently co-transfected with either a plasmid encoding wild type PPARγ or a phosphorylation-defective mutant of PPARγ (GFP-PPARg S82A), 3×PPRE luciferase plasmid and plasmid encoding renilla for transfection efficiency. Forty eight hours following transfection, cells were exposed to 10 uM of C19H24N3O5S5Pr for 18 hours.

[2] = system: PTEN, RhoB, MnSOD; details: SHEP-1 and MDA-MB-231 cells, 5 μM and 10 μM, dose-dependent
Procedure: Whole cell lysates were prepared with RIPA lysis buffer containing 10 mM Tris-HCL pH7.4, 30 mM NaCl, 1 mM EDTA, 1% Nonidet P-40, supplemented with 1 mM Na3VO4, 1 μg/ml leupeptin, 1 μg/ml pepstatin A, 1 μg/ml aprotinin and 1 mM PMSF before use. Protein concentration was determined for each sample and equal amounts of protein were boiled for 5 min for other proteins, with 1×SDS sample buffer and resolved by 8% SDS-PAGE. Thereafter, proteins were transferred onto nitrocellulose membrane, blocked for 1 h at room temperature with 5% non-fat milk, and incubated overnight at 4° C. with the primary antibody. After probing with secondary antibody for 1 hr at 25° C., protein bands were detected by using the Supersignal West Pico Chemiluminescence (Pierce). β-actin antibody was used as a loading control.
Referring to FIGS. 14 and 15, SHEP-1 neuroblastoma cells and MDA-MB-231 breast cancer cells were treated with different concentrations of C19H24N3O5S5Pr at 5 μM and 10 μM for 4 hr, 8 hr, 18 hr, 241r, 48 hr and 72 hr. Whole cell extracts were prepared and protein expression was examined by Western Blot analysis. 70 μg of total protein was loaded per lane for each experiment. The levels of protein were determined by using specific primary antibody followed by peroxidise-conjugated secondary antibody and visualization by enhanced chemiluminescence.

[3] = system: PTEN and MnSOD mRNA; details: SHEP-1 cells, 10 uM, 4 hr, 8 hr and 18 h
Procedure: This example illustrates the effect of C19H24N3O5S5Pr on the mRNA levels of PTEN and MnSOD in SHEP-1 cancer cells. mRNA levels of PTEN and MnSOD were assayed by real time PCR after treatment with 10 uM Pr-MPO for 4 hr, 8 hr and 18 h.

[4] = biological target: T2, PPARγ (Homo sapiens, UniProt P37231); assay: 3×PPRE luciferase reporter, PPARγ activation in breast cancer cells; format: cell-based; design: endogenous in cells; host or cells: MDA-MB-231, T47D (breast cancer); details: 0 to 20 μM, 18 hours
T2 sequence (P37231 1-505): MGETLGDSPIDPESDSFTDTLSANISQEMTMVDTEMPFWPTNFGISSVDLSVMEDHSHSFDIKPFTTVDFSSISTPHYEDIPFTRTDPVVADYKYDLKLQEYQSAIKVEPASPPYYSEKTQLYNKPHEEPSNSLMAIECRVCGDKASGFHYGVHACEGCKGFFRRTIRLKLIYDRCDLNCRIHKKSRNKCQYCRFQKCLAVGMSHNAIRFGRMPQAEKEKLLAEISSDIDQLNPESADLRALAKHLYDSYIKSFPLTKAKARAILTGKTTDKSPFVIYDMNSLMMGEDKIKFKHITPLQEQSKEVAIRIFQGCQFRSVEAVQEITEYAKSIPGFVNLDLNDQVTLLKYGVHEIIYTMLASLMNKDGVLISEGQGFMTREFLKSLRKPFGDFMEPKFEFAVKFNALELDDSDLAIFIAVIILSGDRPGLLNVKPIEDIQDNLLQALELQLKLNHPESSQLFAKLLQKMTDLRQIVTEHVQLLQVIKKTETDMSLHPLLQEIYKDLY
From the text: To determine if C19H24N3O5S5Pr activation of PPARγ is dependent on expression of PPARγ in breast cancer cells, breast cancer cells MDA-MB-231 and T47D were transiently co-transfected with a 3×PPRE luciferase plasmid and renilla plasmid for transfection efficiency.

[5] = biological target: T2, PPARγ; assay: pPPREx3-TKLuc reporter with PPAR-γ short-hairpin RNA silencing (Method 1); format: cell-based; design: endogenous in cells; host or cells: SHSY5Y, SHEP1 / SHEP-1 (neuroblastoma); MDA-MB-231, T47D (breast cancer); details: SHEP-1 cells, 5 uM and 10 uM, 18 hr
From the text: In Method 1, a reporter plasmid containing three copies of the PPAR response element (pPPREx3-TKLuc) as illustrated in FIG. 19A and as previously described in Kim et al, Toxicological Sciences, 85, (2005), pp. 585-593, was transfected into SHEP-1 cancer cells. This system directly measures activation of endogenous PPAR via transcriptional activation of the luciferase reporter gene as a result of PPARγ binding to the PPAR response element (PPRE). To determine whether PPARγ receptor is activated by C19H24N3O5S5Pr, the SHEP-1 cancer cells was transiently transfected with either short-hairpin RNA plasmid targeting PPAR-γ protein or short hairpin RNA negative control. The cells were exposed to varying doses (5 uM, 10 uM) of C19H24N3O5S5Pr for 18 hr.

## CS(C)=O.CS(C)=O.[O-][n+]1ccccc1[S-].[O-][n+]1ccccc1[S-].[O-][n+]1ccccc1[S-].[Pr+3] [C19H24N3O5S5Pr, praseodymium (2-mercaptopyridine N-oxide)(dimethylsulfoxide)]
[1]
  activation of phosphorylation-defective mutant PPARγ versus wild type: significant activation of phosphorylation-defective mutant PPARγ
[2]
  MnSOD protein expression: downregulated
  PTEN protein expression: upregulated
  RhoB protein expression: upregulated
[3]
  mRNA levels of PTEN and MnSOD: also found at the mRNA level
[4]
  PPARγ activation, MDA-MB-231 versus T47D cells: activates PPARγ better in MDA-MB-231 cells, than in T47D cells
[5]
  luciferase activity upon silencing of PPARγ protein: luciferase activity was abrogated
